# Reference: the supplement of paper PMC10307832
# Legend:
# Assay in all cases: relative viability (nuclei count vs DMSO), 5 days (fraction); higher = more cells survive
# Ibrutinib + Bortezomib = compound: C=CC(=O)N1CCC[C@@H](n2nc(-c3ccc(Oc4ccccc4)cc3)c3c(N)ncnc32)C1 [Ibrutinib] + CC(C)C[C@H](NC(=O)[C@H](Cc1ccccc1)NC(=O)c1cnccn1)B(O)O [Bortezomib] (partner 0.002 µM)
# In short: (§1)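 Relative viability is defined as nuclei in treated wells over nuclei in vehicle wells. Duplicate plates were run and medians reported. Lung cancer cell lines in 1536-well plates were dosed by pin tool one day after seeding, with one drug or with a fixed anchor-drug dose plus five library-drug doses (not always all listed) in √10 steps, and nuclei were counted after 5 days.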
# Ibrutinib + Pictilisib = compound: C=CC(=O)N1CCC[C@@H](n2nc(-c3ccc(Oc4ccccc4)cc3)c3c(N)ncnc32)C1 [Ibrutinib] + CS(=O)(=O)N1CCN(Cc2cc3nc(-c4cccc5[nH]ncc45)nc(N4CCOCC4)c3s2)CC1 [Pictilisib] (partner 1 µM)
# In short: as §1
# BMX-IN-1 + Decitabine = compound: C=CC(=O)Nc1cc(-n2c(=O)ccc3cnc4ccc(-c5ccc(NS(C)(=O)=O)cc5)cc4c32)ccc1C [BMX-IN-1] + Nc1ncn([C@H]2C[C@H](O)[C@@H](CO)O2)c(=O)n1 [Decitabine] (partner 2 µM)
# In short: as §1
# PAC-1 + Pictilisib = compound: C=CCc1cccc(/C=N/NC(=O)CN2CCN(Cc3ccccc3)CC2)c1O [PAC-1] + CS(=O)(=O)N1CCN(Cc2cc3nc(-c4cccc5[nH]ncc45)nc(N4CCOCC4)c3s2)CC1 [Pictilisib] (partner 1 µM)
# In short: as §1
Cell Line,relative viability (Ibrutinib + Bortezomib; first compound 0.005 µM),relative viability (Ibrutinib + Bortezomib; first compound 0.01581 µM),relative viability (Ibrutinib + Bortezomib; first compound 0.05 µM),relative viability (Ibrutinib + Bortezomib; first compound 0.1581 µM),relative viability (Ibrutinib + Bortezomib; first compound 0.5 µM),relative viability (Ibrutinib + Pictilisib; first compound 0.005 µM),relative viability (Ibrutinib + Pictilisib; first compound 0.01581 µM),relative viability (Ibrutinib + Pictilisib; first compound 0.05 µM),relative viability (Ibrutinib + Pictilisib; first compound 0.1581 µM),relative viability (Ibrutinib + Pictilisib; first compound 0.5 µM),relative viability (BMX-IN-1 + Decitabine; first compound 0.02 µM),relative viability (BMX-IN-1 + Decitabine; first compound 0.2 µM),relative viability (BMX-IN-1 + Decitabine; first compound 0.6325 µM),relative viability (BMX-IN-1 + Decitabine; first compound 2 µM),relative viability (PAC-1 + Pictilisib; first compound 0.02 µM),relative viability (PAC-1 + Pictilisib; first compound 0.06325 µM),relative viability (PAC-1 + Pictilisib; first compound 0.2 µM),relative viability (PAC-1 + Pictilisib; first compound 2 µM)
NCI-H520,0.567,0.45,0.553,0.662,0.338,0.25,0.262,0.258,0.183,0.254,0.549,0.494,0.449,0.529,0.266,0.303,0.256,0.35
A-427,0.906,0.962,0.981,0.985,0.916,0.553,0.623,0.719,0.405,0.743,0.544,0.554,0.559,0.551,0.689,0.748,0.724,0.831
ABC-1,0.36,0.271,0.33,0.33,0.306,0.528,0.743,0.716,0.513,0.615,1.22,1.31,1.15,1.16,0.624,0.665,0.545,0.74
LC-2-ad,1.18,1,1.06,0.965,1.02,0.335,0.19,0.53,0.525,0.299,0.836,0.938,0.889,0.733,0.523,0.588,0.511,0.56
NCI-H727,0.628,0.796,0.981,0.623,0.785,0.253,0.471,0.246,0.298,0.343,0.668,0.917,0.777,1.01,0.338,0.525,0.453,0.283
COR-L23,1.13,0.992,0.983,0.917,1.1,0.626,0.742,0.885,0.925,0.729,0.467,0.45,0.484,0.438,0.853,0.848,0.644,0.855
NCI-H3122,1.07,1.05,1.08,0.955,1.02,0.563,0.61,0.69,0.375,0.533,0.421,0.33,0.548,0.514,0.611,0.564,0.645,0.566
NCI-H322M,1.09,1.22,1.25,1.24,1.07,0.431,0.562,0.597,0.374,0.467,0.604,0.699,0.722,0.661,0.4,0.513,0.499,0.332
HCC-44,0.896,0.881,0.987,0.908,0.946,0.593,0.467,0.527,0.599,0.694,0.988,0.969,1.01,0.981,0.455,0.697,0.666,0.648
NCI-H441,0.518,0.498,0.45,0.575,0.479,0.586,0.551,0.619,0.435,0.449,0.256,0.246,0.321,0.233,0.447,0.583,0.552,0.377
NCI-H2347,,0.982,1.03,,0.871,0.648,0.672,0.587,0.299,0.535,0.647,0.678,0.608,0.75,0.51,0.723,0.604,0.591
HCC-827,1.19,1.05,1.15,0.982,0.807,0.916,0.909,1.02,1.08,0.458,0.27,0.31,0.342,0.292,1.12,1.01,0.99,0.983
LOU-NH91,0.509,0.553,0.513,0.476,0.478,0.451,0.475,0.512,0.487,0.487,,0.799,0.842,0.828,0.494,0.521,0.545,0.514
NCI-H1651,0.953,0.971,,0.822,0.967,0.502,0.482,0.466,0.627,0.643,0.5,0.667,0.722,0.593,0.579,0.647,0.59,0.535
NCI-H1792,,0.984,1,0.85,0.93,0.286,0.25,0.23,0.295,0.242,0.539,0.615,0.525,0.568,0.319,0.279,0.287,0.285
PC-3 [JPC-3],0.837,0.805,0.831,0.826,0.635,0.621,0.685,0.686,0.531,0.528,0.84,0.754,0.816,0.885,0.736,0.77,0.732,0.787
NCI-H596,1.21,0.457,,0.834,0.92,0.43,0.406,0.442,0.392,0.393,1.04,1.14,0.945,1.2,0.424,0.423,0.341,0.422
NCI-H838,0.781,0.729,0.687,0.741,0.673,0.343,0.38,0.514,0.472,0.543,0.5,0.439,0.466,0.444,0.427,0.526,0.387,0.455
NCI-H647,0.823,0.86,0.991,1.04,1.02,0.28,0.418,0.357,0.323,,0.407,0.502,0.479,0.462,0.417,,0.417,0.331
HCC-366,1.03,0.977,1.09,1.01,1.07,,0.125,0.141,0.124,0.14,0.356,0.378,0.416,0.39,0.203,0.142,0.149,0.184
